PubChem BioAssay (NCI)
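Values below derive from 48-hour exposures of cells grown in 96-well plates, with endpoints linearly interpolated between the two concentrations bracketing the appropriate inhibition level. GI50 is the concentration that inhibits growth by half. Definition used: TGI = concentration required for complete inhibition of growth.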

Assays:
Experiment in all cases: NCI tumour cell line growth inhibition, 48 h
[1] = test system: COLO 205 colon
[2] = test system: EKVX NSCLC
[3] = test system: HOP-92 NSCLC
[4] = test system: HS 578T breast
[5] = test system: MALME-3M melanoma
[6] = test system: MOLT-4 leukemia
[7] = test system: NCI-H460 lung
[8] = test system: OVCAR-5 ovarian
[9] = test system: SF-268 CNS
[10] = test system: SK-MEL-2 melanoma

SMILES | TGI [1] [µM] | TGI [2] [µM] | TGI [3] [µM] | TGI [4] [µM] | TGI [5] [µM] | TGI [6] [µM] | TGI [7] [µM] | TGI [8] [µM] | TGI [9] [µM] | TGI [10] [µM] | GI50 [1] [µM] | GI50 [2] [µM] | GI50 [3] [µM] | GI50 [4] [µM] | GI50 [5] [µM] | GI50 [6] [µM] | GI50 [7] [µM] | GI50 [8] [µM] | GI50 [9] [µM] | GI50 [10] [µM]
NC[C@H]1Nc2ccccc2[C@@H](O)C1O (stereo not given in full) | > 100 | > 100 | > 100 | > 100 | > 100 | > 100 | > 100 | > 100 | > 100 | > 100 |  |  |  |  |  |  |  |  |  | 
C[C@@H](O)[C@H](NC(=O)N[C@@H](CC(N)=O)c1nc([C@@H](N)CO)no1)C(=O)O | > 100 | > 100 | > 100 | > 100 | > 100 | > 100 | > 100 | > 100 | > 100 | > 100 | > 100 | > 100 | > 100 | > 100 | > 100 | > 100 | > 100 | > 100 | > 100 | > 100
Cc1cc(=O)oc2c(C)c(O)ccc12 | > 100 | > 100 | > 100 | > 100 | > 100 | > 100 | > 100 | > 100 | > 100 | > 100 |  |  |  |  |  |  |  |  |  | 
CS(=O)(=O)CCNCc1ccc(-c2ccc3ncnc(Nc4ccc(OCc5ccccc5)c(Br)c4)c3c2)o1 | 9.75 | > 25 | 12.5 | 15.9 | 10.4 | > 25 | > 25 | > 25 | > 25 | 13.1 | 4.69 | 0.526 | 3.49 | 5.08 | 5.37 | 9.2 | 7.87 | 7.05 | 10.7 | 6.5
Nc1c2c(c(O)c3c1=C(CO)C=N3)=NCCS2 | 0.146 | 1.2 | 2.5 | 0.812 | 0.108 | 0.541 | 0.154 | 0.346 | 1.05 | 0.658 | 0.0397 | 0.311 | 0.761 | 0.318 | 0.0347 | 0.223 | 0.0389 | 0.184 | 0.291 | 0.25
C=C1C(=O)OC2C1CCC(C)C1C=CC(=O)C12C (stereo not given) | 5.74 | 25.2 | 13.3 | 15.4 | 7.47 | 10.4 | 18.9 | 13.8 | 39.5 | 17.5 |  |  |  |  |  |  |  |  |  | 
COc1cc2c(cc1OC)-c1ccc3cc4c(cc3c1N(CCCn1ccnc1)C2)OCO4 | 6.12 | > 100 | 32.5 | 40 | 10.7 | > 100 | 11.3 | 69.9 | 53.4 | 8.73 | 1.49 | 31.9 | 3.58 | 5.75 | 2.68 | 0.467 | 0.527 | 16.4 | 0.514 | 3.02
COc1ccc(-c2cc(-c3ccc(Cl)cc3)nc(SCCCC(=O)NO)n2)cc1 | 4.4 | 8.76 | 5.07 | 11.2 | 7.01 | > 22 | 3.9 | 6.92 | 4.27 | 6.94 | 1.69 | 1.21 | 1.8 | 2.08 | 1.86 | 0.796 | 0.495 | 1.37 | 1.15 | 2.42
O=C1CC(=O)N(C(=O)c2nn(-c3ccc(Cl)cc3)cc2O)N1 | 3.99 | > 100 | > 100 | > 100 | 46.5 | > 41.7 | > 100 | > 100 | > 100 | > 100 | 0.748 | 0.845 | 0.508 | 0.136 | 0.703 | 0.403 | 0.345 | 4.17 | 0.461 | > 100
CCN(Cc1ccccc1)c1ccc(CO)c(Cl)c1 | 4.51 | 74.5 | 15.3 | > 84.9 | > 82.6 | > 87.2 | 13.9 | 0.593 | > 70.6 | 24.7 | 1.74 | 20.1 | 1.67 | 23.2 | 28.6 | 29.9 | 0.327 | 0.164 | 26.7 | 3.79
